Results from patent US8946124B2, “Substituted 3-(biphenyl-3-yl)-8,8-difluoro-4-hydroxy-1-azaspiro[4.5]dec-3-en-2-ones for therapy and halogen-substituted spirocyclic ketoenols” (Bayer Intellectual Property GmbH, priority 2011, dated 2015).

Legend:
Tetranychus urticae = test: Tetranychus test, OP-resistant (TETRUR spray treatment); assay type: in vivo; conditions: after 6 days
Experimental: (§1) Solvents: 78.0 parts by weight of acetone
After 6 days, the effect in % is determined.
Tetranychus Test, OP-Resistant (TETRUR Spray Treatment)

human ACC1 = assay type: biochemical; conditions: pairwise, same substance dilution series
Phaedon cochleariae = test: Phaedon test (PHAECO spray treatment); conditions: 500 g/ha, after 7 days
Spodoptera frugiperda = Spodoptera frugiperda test (SPODFR spray treatment); assay type: in vivo; conditions: 500 g/ha, after 7 days
Text: as §1

Myzus persicae = test: Myzus test (MYZUPE spray treatment); assay type: in vivo; conditions: 500 g/ha, after 6 days
[1] = Octanol/water distribution coefficient (log P/D), isocratic HPLC method; assay type: physicochemical; conditions: pH 7.4; mean (range, n); read-out: logP/D pH 7.4
Text: The distribution coefficient octanol/water P or D is a key parameter for estimating membrane penetration and permeability. It is defined as the ratio of the equilibrium concentrations of a substance in the two-phase system octanol/water.
[formula] P=partition D=distribution c(octanol)=concentration of the substance in the octanol phase c(water)=concentration of the substance in the aqueous phase
It is usually stated in form of the decadic logarithm (log P or log D).
log P describes the distribution behavior of a substance exclusively present in its neutral form. logD describes the distribution behavior of a substance at a certain pH; depending on the ionisation constant pKa of the substance, some of the substance may be present in ionic form, and some in neutral form.
The log P/D of the active compounds was determined using an isocratic HPLC method (HPLC=high performance liquid chromatography) (literature: OECD Guideline for Testing of Chemicals No. 117). The method is based on the correlation of the HPLC retention time of the test substance to that of reference substances with known distribution coefficients.
The test substance was employed as a 10 mM solution in DMSO (DMSO=dimethyl sulfoxide). 10 μl of this solution were made up to 100 μl with a methanol/water mixture in a ratio of 7+3.
The nine reference substances were dissolved individually in methanol. 100 μl each of the stock solutions were added to an HPLC vial and mixed with 300 μl of water.
A formamide solution was used to determine the hold-up time. To this end, 7 mg of formamide were dissolved in 10 ml of methanol. 100 μl of this stock solution were mixed with 500 μl of methanol and 200 μl of water.
All solutions were chromatographed using a flow rate of 1.00 ml/min.
Injection Protocol: formamide, references, test substance 1, test substance 2, . . . , formamide, references.
Evaluation of the retention times was carried out in a diode array detector (DAD) at 200-400 nm. Via the molecular mass, the identity of the test substance was checked using the downstream mass spectrometer.
The HPLC run was evaluated using the Waters software Masslynx 4.1.
The log P/D values were calculated using the software “POW Determination” (proprietary development).

Meloidogyne incognita = Meloidogyne incognita test (MELGIN); assay type: in vivo; conditions: 20 ppm, after 14 days
Experimental: Solvent: 125 parts by weight of acetone
Containers are filled with sand, solution of active compound, Meloidogyne incognita egg/larvae suspension and lettuce seeds. The lettuce seeds germinate and the plants develop. On the roots, galls are formed. After 14 days, the nematicidal effect in % is determined by the formation of galls. 100% means that no galls have been found; 0% means that the number of galls on the treated plants corresponds to the untreated control.

SMILES	effect in % (spider mites killed) (Tetranychus urticae; 100 g/ha)	effect in % (beetle larvae killed) (Phaedon cochleariae)	effect in % (aphids killed) (Myzus persicae)	other results
CCc1cc(C)cc(C)c1C1=C(O)C2(CCC(F)(F)CC2)NC1=O [Example I-1-a-11]	100%			
O=C1NC2(CCC(F)(F)CC2)C(O)=C1c1cc(-c2ccc(Cl)cc2)ccc1Cl [Example 1-4, 3-(4,4′-Dichlorobiphenyl-3-yl)-8,8-difluoro-4-hydroxy-1-azaspiro[4.5]dec-3-en-2-one]				Ratio of IC50s ACC2/ACC1 (respective measurement) (human ACC1): 34.0
Cc1ccc(-c2ccc(F)cc2)c(C)c1C1=C(O)C2(CCC(F)(F)CC2)OC1=O [Example I-2-a-2]		100%	100%	effect in % (spider mites killed) (Tetranychus urticae; 500 g/ha): 100%; effect in % (caterpillars killed) (Spodoptera frugiperda): 100%
Cc1ccc(-c2ccc(Cl)c(F)c2)cc1C1=C(O)C2(CCCCC2)NC1=O [V.1-b, 3-(4′-Chloro-3′-fluoro-4-methylbiphenyl-3-yl)-4-hydroxy-1-azaspiro[4.5]dec-3-en-2-one]				chromatographic logD [1]: 2.8
Cc1ccc(-c2ccc(Cl)cc2)cc1C1=C(O)[C@]2(CC[C@H](C(F)(F)F)CC2)NC1=O [V.2-a, (5s,8s)-3-(4′-Chloro-4-methylbiphenyl-3-yl)-4-hydroxy-8-(trifluoromethyl)-1-azaspiro[4.5]dec-3-en-2-one]				chromatographic logD [1]: 2.23; Ratio of IC50s ACC2/ACC1 (respective measurement) (human ACC1): 8.4
Cc1ccc(-c2ccc(Cl)c(F)c2)cc1C1=C(O)[C@]2(CC[C@H](C(F)(F)F)CC2)NC1=O [V.1-a, (5s,8s)-3-(4′-Chloro-3′-fluoro-4-methylbiphenyl-3-yl)-4-hydroxy-8-(trifluoromethyl)-1-azaspiro[4.5]dec-3-en-2-one]				chromatographic logD [1]: 2.55; Ratio of IC50s ACC2/ACC1 (respective measurement) (human ACC1): 8.6
Cc1ccc(-c2ccc(F)cc2)c(C)c1C1=C(O)C2(CC=C(F)CC2)NC1=O (centres unmarked) [Example I-1-a-12]		100%	100%	effect in % (spider mites killed) (Tetranychus urticae; 500 g/ha): 100%; effect in % (caterpillars killed) (Spodoptera frugiperda): 100%
Cc1cc(Cl)cc(C)c1C1=C(O)C2(CC=C(F)CC2)NC1=O (centres unmarked) [Example I-1-a-13]	90%	100%	100%	
Cc1ccc(-c2ccc(Cl)cc2)cc1C1=C(O)C2(CCC(F)(F)CC2)OC1=O [Example I-2-a-3]		100%	90%	effect in % (caterpillars killed) (Spodoptera frugiperda): 100%
Cc1cc(C)c(C2=C(O)C3(CCC(F)(F)CC3)OC2=O)c(C)c1 [Example I-2-a-4]		100%	100%	
Cc1cc(Cl)cc(C)c1C1=C(O)C2(CCC(F)(F)CC2)NC1=O [Example I-1-a-7]	100%	100%	100%	
Cc1cc(Br)cc(C)c1C1=C(O)C2(CCC(F)(F)CC2)NC1=O [Example I-1-a-5]	100%	100%	100%	
Cc1ccc(-c2ccc(Cl)cc2)c(C)c1C1=C(O)C2(CCC(F)(F)CC2)NC1=O [Example 1-5, 3-(4′-Chloro-2,4-dimethylbiphenyl-3-yl)-8,8-difluoro-4-hydroxy-1-azaspiro[4.5]dec-3-en-2-one]	90%		100%	nematicidal effect in % (formation of galls) (Meloidogyne incognita): 100%
